Test results as given in patent publication US20220193081A1 (Ellamed IP & Services PTE. LTD., priority 2019, published 2022).

Experiment: HPLC assay on storage of sildenafil citrate with equal concentration of sucralose in pH adjusted 50% ethanol (Example 2)
Assay type: physicochemical
Description: At room temperature, a phosphate buffer was prepared by weighing 3.9 g of NaH2PO4.2H2O into a 500 mL volumetric flask and adding approximately 300 mL of purified water until the phosphate fully dissolved. The pH was then adjusted to 7 with the introduction of NaOH and dilute to the requisite volume by the further addition of purified water.
A 50% ethanol mixture was prepared by introducing either purified water, taken from a MilliQ™ unit or phosphate buffer, to equivalent volumes of Ph.Eur. grade absolute alcohol. The pH of the resultant mixture was then adjusted by using either NaOH 1N solutions and/or Sodium Citrate 1N solutions to reach predetermined pH values.
Samples of sucralose were then dissolved in the pH adjusted 50% ethanol, whilst stirred with a magnetic stirrer and a needle, to a predetermined concentration. […] After preparation, the solutions were each filtered through PDVF 0.22 micro filter of 13 mm in size and placed in polypropylene containers of adequate volume.
Before being placed on storage, and at time points 7 and 42 days, the concentration of sildenafil in the mixture was assayed using HPLC. The samples were then stored at either −20° C., 2-8° C. or 25° C. for periods of up to 42 days. Periodically, the samples were visually inspected for evidence of precipitation or crystallization. […]
The samples of 21 mg/ml at a pH of 5.6 were maintained in stability testing at 25° C. for a total of 285 days.

**Q.** For CCCc1nn(C)c2c(=O)nc(-c3cc(S(=O)(=O)N4CCN(C)CC4)ccc3OCC)[nH]c12.O=C(O)CC(O)(CC(=O)O)C(=O)O [sildenafil citrate, 1-[[3-(4,7-Dihydro-1-methyl-7-oxo-3-propyl-1H-pyrazolo[4,3-d]pyrimidin-5-yl)-4-ethoxyphenyl]sulfonyl]-4-methylpiperazine citrate salt], which “concentration of sildenafil by HPLC” value (15 mg/ml, pH 5.0, Sodium Citrate, 2-8 ° C., Day 7) is on record?
**A.** 11050 µg/mL

**Q.** And the “concentration of sildenafil by HPLC” value (15 mg/ml, pH 5.0, Sodium Citrate, 25 ° C., Day 7)?
**A.** 14890 µg/mL

**Q.** And the “concentration of sildenafil by HPLC” value (15 mg/ml, pH 5.0, Sodium Citrate, Day 0)?
**A.** 15220 µg/mL

**Q.** And the “concentration of sildenafil by HPLC” value (15 mg/ml, pH 5.2, NaOH, 2-8 ° C., Day 7)?
**A.** 14990 µg/mL

**Q.** What about the “concentration of sildenafil by HPLC” value (15 mg/ml, pH 5.2, NaOH, 25 ° C., Day 7) of the same compound?
**A.** 15010 µg/mL

**Q.** And the “concentration of sildenafil by HPLC” value (15 mg/ml, pH 5.2, NaOH, Day 0)?
**A.** 15050 µg/mL

**Q.** What about the “concentration of sildenafil by HPLC” value (15 mg/ml, pH 5.24, NaOH, 50% ethanol/phosphate buffer, 2-8 ° C., Day 7) of the same compound?
**A.** 14970 µg/mL

**Q.** And the “concentration of sildenafil by HPLC” value (15 mg/ml, pH 5.24, NaOH, 50% ethanol/phosphate buffer, 25 ° C., Day 7)?
**A.** 15010 µg/mL

**Q.** What about the “concentration of sildenafil by HPLC” value (15 mg/ml, pH 5.24, NaOH, 50% ethanol/phosphate buffer, Day 0) of the same compound?
**A.** 15060 µg/mL

**Q.** And the “concentration of sildenafil by HPLC” value (15 mg/ml, pH 5.6, NaOH, 2-8 ° C., Day 7)?
**A.** 15030 µg/mL

**Q.** And the “concentration of sildenafil by HPLC” value (15 mg/ml, pH 5.6, NaOH, 2-8 ° C., Day 42)?
**A.** 15050 µg/mL

**Q.** What about the “concentration of sildenafil by HPLC” value (15 mg/ml, pH 5.6, NaOH, 25 ° C., Day 7) of the same compound?
**A.** 14930 µg/mL

**Q.** And the “concentration of sildenafil by HPLC” value (15 mg/ml, pH 5.6, NaOH, 25 ° C., Day 42)?
**A.** 14970 µg/mL

**Q.** And the “concentration of sildenafil by HPLC” value (15 mg/ml, pH 5.6, NaOH, 50% ethanol/phosphate buffer, 2-8 ° C., Day 7)?
**A.** 14920 µg/mL

**Q.** What about the “concentration of sildenafil by HPLC” value (15 mg/ml, pH 5.6, NaOH, 50% ethanol/phosphate buffer, 25 ° C., Day 7) of the same compound?
**A.** 14940 µg/mL

**Q.** What about the “concentration of sildenafil by HPLC” value (15 mg/ml, pH 5.6, NaOH, 50% ethanol/phosphate buffer, Day 0) of the same compound?
**A.** 14960 µg/mL

**Q.** What about the “concentration of sildenafil by HPLC” value (15 mg/ml, pH 5.6, NaOH, Day 0) of the same compound?
**A.** 15140 µg/mL

**Q.** What about the “concentration of sildenafil by HPLC” value (15 mg/ml, pH 5.6, Sodium Citrate, 2-8 ° C., Day 7) of the same compound?
**A.** 14800 µg/mL

**Q.** And the “concentration of sildenafil by HPLC” value (15 mg/ml, pH 5.6, Sodium Citrate, 2-8 ° C., Day 42)?
**A.** 15040 µg/mL

**Q.** What about the “concentration of sildenafil by HPLC” value (15 mg/ml, pH 5.6, Sodium Citrate, 25 ° C., Day 7) of the same compound?
**A.** 14790 µg/mL

**Q.** And the “concentration of sildenafil by HPLC” value (15 mg/ml, pH 5.6, Sodium Citrate, 25 ° C., Day 42)?
**A.** 14880 µg/mL

**Q.** And the “concentration of sildenafil by HPLC” value (15 mg/ml, pH 5.6, Sodium Citrate, Day 0)?
**A.** 14920 µg/mL

**Q.** What about the “concentration of sildenafil by HPLC” value (15 mg/ml, pH 6.01, NaOH, 50% ethanol/phosphate buffer, 2-8 ° C., Day 7) of the same compound?
**A.** 14690 µg/mL

**Q.** What about the “concentration of sildenafil by HPLC” value (15 mg/ml, pH 6.01, NaOH, 50% ethanol/phosphate buffer, 25 ° C., Day 7) of the same compound?
**A.** 14830 µg/mL

**Q.** And the “concentration of sildenafil by HPLC” value (15 mg/ml, pH 6.01, NaOH, 50% ethanol/phosphate buffer, Day 0)?
**A.** 14830 µg/mL

**Q.** What about the “concentration of sildenafil by HPLC” value (15 mg/ml, pH 6.2, NaOH, 2-8 ° C., Day 7) of the same compound?
**A.** 10420 µg/mL

**Q.** And the “concentration of sildenafil by HPLC” value (15 mg/ml, pH 6.2, NaOH, 25 ° C., Day 7)?
**A.** 11750 µg/mL

**Q.** What about the “concentration of sildenafil by HPLC” value (15 mg/ml, pH 6.2, NaOH, Day 0) of the same compound?
**A.** 15140 µg/mL

**Q.** And the “concentration of sildenafil by HPLC” value (15 mg/ml, pH 6.2, Sodium Citrate, 2-8 ° C., Day 7)?
**A.** 11110 µg/mL

**Q.** What about the “concentration of sildenafil by HPLC” value (15 mg/ml, pH 6.2, Sodium Citrate, 25 ° C., Day 7) of the same compound?
**A.** 12100 µg/mL

**Q.** What about the “concentration of sildenafil by HPLC” value (15 mg/ml, pH 6.2, Sodium Citrate, Day 0) of the same compound?
**A.** 14750 µg/mL

**Q.** What about the “concentration of sildenafil by HPLC” value (18 mg/ml, pH 5.2, NaOH, 2-8 ° C., Day 7) of the same compound?
**A.** 17890 µg/mL

**Q.** And the “concentration of sildenafil by HPLC” value (18 mg/ml, pH 5.2, NaOH, 25 ° C., Day 7)?
**A.** 17930 µg/mL

**Q.** What about the “concentration of sildenafil by HPLC” value (18 mg/ml, pH 5.2, NaOH, Day 0) of the same compound?
**A.** 18230 µg/mL

**Q.** What about the “concentration of sildenafil by HPLC” value (18 mg/ml, pH 5.2, Sodium Citrate, Day 0) of the same compound?
**A.** 18090 µg/mL

**Q.** What about the “concentration of sildenafil by HPLC” value (18 mg/ml, pH 5.3, NaOH, 50% ethanol/phosphate buffer, 2-8 ° C., Day 7) of the same compound?
**A.** 18050 µg/mL

**Q.** What about the “concentration of sildenafil by HPLC” value (18 mg/ml, pH 5.3, NaOH, 50% ethanol/phosphate buffer, 25 ° C., Day 7) of the same compound?
**A.** 18070 µg/mL

**Q.** What about the “concentration of sildenafil by HPLC” value (18 mg/ml, pH 5.3, NaOH, 50% ethanol/phosphate buffer, Day 0) of the same compound?
**A.** 18070 µg/mL

**Q.** And the “concentration of sildenafil by HPLC” value (18 mg/ml, pH 5.6, NaOH, 2-8 ° C., Day 7)?
**A.** 17860 µg/mL

**Q.** And the “concentration of sildenafil by HPLC” value (18 mg/ml, pH 5.6, NaOH, 2-8 ° C., Day 42)?
**A.** 18070 µg/mL

**Q.** What about the “concentration of sildenafil by HPLC” value (18 mg/ml, pH 5.6, NaOH, 25 ° C., Day 7) of the same compound?
**A.** 17860 µg/mL

**Q.** What about the “concentration of sildenafil by HPLC” value (18 mg/ml, pH 5.6, NaOH, 25 ° C., Day 42) of the same compound?
**A.** 18070 µg/mL

**Q.** What about the “concentration of sildenafil by HPLC” value (18 mg/ml, pH 5.6, NaOH, Day 0) of the same compound?
**A.** 18130 µg/mL

**Q.** And the “concentration of sildenafil by HPLC” value (18 mg/ml, pH 5.6, Sodium Citrate, 2-8 ° C., Day 7)?
**A.** 17820 µg/mL

**Q.** What about the “concentration of sildenafil by HPLC” value (18 mg/ml, pH 5.6, Sodium Citrate, 2-8 ° C., Day 42) of the same compound?
**A.** 17880 µg/mL

**Q.** What about the “concentration of sildenafil by HPLC” value (18 mg/ml, pH 5.6, Sodium Citrate, 25 ° C., Day 7) of the same compound?
**A.** 17820 µg/mL

**Q.** What about the “concentration of sildenafil by HPLC” value (18 mg/ml, pH 5.6, Sodium Citrate, 25 ° C., Day 42) of the same compound?
**A.** 17910 µg/mL

**Q.** And the “concentration of sildenafil by HPLC” value (18 mg/ml, pH 5.6, Sodium Citrate, Day 0)?
**A.** 18190 µg/mL

**Q.** And the “concentration of sildenafil by HPLC” value (18 mg/ml, pH 5.63, NaOH, 50% ethanol/phosphate buffer, 2-8 ° C., Day 7)?
**A.** 18010 µg/mL

**Q.** And the “concentration of sildenafil by HPLC” value (18 mg/ml, pH 5.63, NaOH, 50% ethanol/phosphate buffer, 25 ° C., Day 7)?
**A.** 18040 µg/mL

**Q.** And the “concentration of sildenafil by HPLC” value (18 mg/ml, pH 5.63, NaOH, 50% ethanol/phosphate buffer, Day 0)?
**A.** 18180 µg/mL

**Q.** And the “concentration of sildenafil by HPLC” value (18 mg/ml, pH 6.0, Sodium Citrate, 2-8 ° C., Day 7)?
**A.** 14950 µg/mL

**Q.** And the “concentration of sildenafil by HPLC” value (18 mg/ml, pH 6.0, Sodium Citrate, 25 ° C., Day 7)?
**A.** 15080 µg/mL

**Q.** What about the “concentration of sildenafil by HPLC” value (18 mg/ml, pH 6.0, Sodium Citrate, Day 0) of the same compound?
**A.** 17760 µg/mL

**Q.** What about the “concentration of sildenafil by HPLC” value (21 mg/ml, pH 5.29, NaOH, 50% ethanol/phosphate buffer, 2-8 ° C., Day 7) of the same compound?
**A.** 20970 µg/mL

**Q.** And the “concentration of sildenafil by HPLC” value (21 mg/ml, pH 5.29, NaOH, 50% ethanol/phosphate buffer, 25 ° C., Day 7)?
**A.** 20980 µg/mL
